From PubChem BioAssay AID1918932 (Molecular Pharmacology Branch, DTP, NCI, 2023)
Values joined by “and” are separate entries in the source; they are usually repeats but may differ in a detail not shown here. Equal values may be shown once.

System: 171881-019-R-J1-PDC complex spheroid viability
Assay: Anticancer human tumor 171881-019-R-J1-PDC patient-derived invasive breast carcinoma cell line growth inhibition
Conditions: for viability, T/C: stronger effect = lower value
How it was run: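 Drug combinations with the LSD1 inhibitor iadademstat tested on tumor cells co-cultured as spheroids with endothelial cells and mesenchymal stem cells. Concentrations descended in half-log increments from clinical Cmax or 10 microM.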

[1] = curve of first compound, second compound 0.1 µM
[2] = curve of first compound, second compound 0.316 µM
[3] = curve of first compound, second compound 1 µM
[4] = curve of first compound, second compound 3.16 µM
[5] = curve of first compound, second compound 10 µM
[6] = second compound 0.1 µM, first compound 0.0316 µM
[7] = second compound 0.1 µM, first compound 0.1 µM
[8] = second compound 0.1 µM, first compound 0.316 µM
[9] = second compound 0.1 µM, first compound 1 µM
[10] = second compound 0.1 µM, first compound 3.16 µM
[11] = second compound 0.1 µM, first compound 10 µM
[12] = second compound 0.316 µM, first compound 0.0316 µM
[13] = second compound 0.316 µM, first compound 0.1 µM
[14] = second compound 0.316 µM, first compound 0.316 µM
[15] = second compound 0.316 µM, first compound 1 µM
[16] = second compound 0.316 µM, first compound 3.16 µM
[17] = second compound 0.316 µM, first compound 10 µM
[18] = second compound 1 µM, first compound 0.0316 µM
[19] = second compound 1 µM, first compound 0.1 µM
[20] = second compound 1 µM, first compound 0.316 µM
[21] = second compound 1 µM, first compound 1 µM
[22] = second compound 1 µM, first compound 3.16 µM
[23] = second compound 1 µM, first compound 10 µM
[24] = second compound 3.16 µM, first compound 0.0316 µM
[25] = second compound 3.16 µM, first compound 0.1 µM
[26] = second compound 3.16 µM, first compound 0.316 µM
[27] = second compound 3.16 µM, first compound 1 µM
[28] = second compound 3.16 µM, first compound 3.16 µM
[29] = second compound 3.16 µM, first compound 10 µM
[30] = second compound 10 µM, first compound 0.0316 µM
[31] = second compound 10 µM, first compound 0.1 µM
[32] = second compound 10 µM, first compound 0.316 µM
[33] = second compound 10 µM, first compound 1 µM
[34] = second compound 10 µM, first compound 3.16 µM
[35] = second compound 10 µM, first compound 10 µM
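Further: spheroids exposed to agents for 7 days after 3 days growth.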

CC1(C)CCC(CN2CCN(c3ccc(C(=O)NS(=O)(=O)c4ccc(NCC5CCOCC5)c([N+](=O)[O-])c4)c(Oc4cnc5[nH]ccc5c4)c3)CC2)=C(c2ccc(Cl)cc2)C1 + NC1CC1c1ccc(-c2cccc(O)c2)cc1
IC50 [1]: 1410 nM | IC50 [2]: 1490 nM | IC50 [3]: 1450 nM | IC50 [4]: 1450 nM | IC50 [5]: 1300 nM | viability, T/C [6]: 101% | viability, T/C [7]: 97.9% | viability, T/C [8]: 87.8% | viability, T/C [9]: 63% | viability, T/C [10]: 21.7% | viability, T/C [11]: 9.08% | viability, T/C [12]: 103% | viability, T/C [13]: 95.7% | viability, T/C [14]: 92.3% | viability, T/C [15]: 64.4% | viability, T/C [16]: 22.9% | viability, T/C [17]: 4.28% | viability, T/C [18]: 103% | viability, T/C [19]: 102% | viability, T/C [20]: 88.4% | viability, T/C [21]: 64.2% | viability, T/C [22]: 22.3% | viability, T/C [23]: 4% | viability, T/C [24]: 94.5% | viability, T/C [25]: 92.7% | viability, T/C [26]: 86.3% | viability, T/C [27]: 63.2% | viability, T/C [28]: 22.8% | viability, T/C [29]: 4.22% | viability, T/C [30]: 84.5% | viability, T/C [31]: 82.5% | viability, T/C [32]: 77.1% | viability, T/C [33]: 59% | viability, T/C [34]: 21.2% | viability, T/C [35]: 3.96%

COc1ccc([C@@H](O)c2cc(-c3ncnc4cc(N5CCOCC5)ccc34)c(F)cc2Cl)nn1 + NC1CC1c1ccc(-c2cccc(O)c2)cc1
IC50 [1]: 624 nM | IC50 [2]: 672 nM | IC50 [3]: 753 nM | IC50 [4]: 804 nM | IC50 [5]: 606 nM | viability, T/C [6]: 100% | viability, T/C [7]: 99.9% | viability, T/C [8]: 78.9% | viability, T/C [9]: 30.5% | viability, T/C [10]: 7.18% | viability, T/C [11]: 11% | viability, T/C [12]: 103% | viability, T/C [13]: 100% | viability, T/C [14]: 81.2% | viability, T/C [15]: 34.4% | viability, T/C [16]: 8.07% | viability, T/C [17]: 11% | viability, T/C [18]: 108% | viability, T/C [19]: 107% | viability, T/C [20]: 85.9% | viability, T/C [21]: 39.2% | viability, T/C [22]: 8.76% | viability, T/C [23]: 9.94% | viability, T/C [24]: 104% | viability, T/C [25]: 106% | viability, T/C [26]: 92.1% | viability, T/C [27]: 40.8% | viability, T/C [28]: 7.82% | viability, T/C [29]: 10.7% | viability, T/C [30]: 84.8% | viability, T/C [31]: 88.6% | viability, T/C [32]: 75.2% | viability, T/C [33]: 30.6% | viability, T/C [34]: 8.18% | viability, T/C [35]: 9.78%

COc1cc(C2c3cc4c(cc3C(OC3OC5COC(C)OC5C(O)C3O)C3COC(=O)C23)OCO4)cc(OC)c1O (centres undefined)
viability, T/C (compound 0.00949 µM): 97.7% and 100% | viability, T/C (compound 0.03 µM): 121% and 90% | viability, T/C (compound 0.0949 µM): 78.5% and 72.5% | viability, T/C (compound 0.3 µM): 51.8% and 64.3% | viability, T/C (compound 0.949 µM): 32.6% and 49.3% | viability, T/C (compound 3 µM): 17.2% and 29.7% | IC50 (curve of compound): 315 nM and 775 nM

CC(C)c1c(-c2ccccc2)nc2c(C#N)c[nH]n2c1=O
viability, T/C (compound 0.0316 µM): 95.8% and 97.3% | viability, T/C (compound 0.1 µM): 92.4% and 99.1% | viability, T/C (compound 0.316 µM): 87.7% and 97.2% | viability, T/C (compound 1 µM): 89.9% and 88% | viability, T/C (compound 3.16 µM): 94% and 67.1% | viability, T/C (compound 10 µM): 95.2% and 19.2% | IC50 (curve of compound): > 10000 nM and 4750 nM

NS(=O)(=O)OCC1CC(n2ccc3c(NC4CCc5ccccc54)ncnc32)CC1O (centres undefined) + NC1CCC(NC2CC2c2ccccc2)CC1
IC50 [1]: 41.9 nM | IC50 [2]: 42.7 nM | IC50 [3]: 31.1 nM | IC50 [4]: 32.7 nM | IC50 [5]: 39 nM | viability, T/C (second compound 0.1 µM, first compound 0.00949 µM): 109% | viability, T/C (second compound 0.1 µM, first compound 0.03 µM): 58.5% | viability, T/C (second compound 0.1 µM, first compound 0.0949 µM): 29.3% | viability, T/C (second compound 0.1 µM, first compound 0.3 µM): 23.5% | viability, T/C (second compound 0.1 µM, first compound 0.949 µM): 27.9% | viability, T/C (second compound 0.1 µM, first compound 3 µM): 23.8% | viability, T/C (second compound 0.316 µM, first compound 0.00949 µM): 110% | viability, T/C (second compound 0.316 µM, first compound 0.03 µM): 58.5% | viability, T/C (second compound 0.316 µM, first compound 0.0949 µM): 30.5% | viability, T/C (second compound 0.316 µM, first compound 0.3 µM): 27.9% | viability, T/C (second compound 0.316 µM, first compound 0.949 µM): 27.3% | viability, T/C (second compound 0.316 µM, first compound 3 µM): 21.7% | viability, T/C (second compound 1 µM, first compound 0.00949 µM): 103% | viability, T/C (second compound 1 µM, first compound 0.03 µM): 50.7% | viability, T/C (second compound 1 µM, first compound 0.0949 µM): 23.8% | viability, T/C (second compound 1 µM, first compound 0.3 µM): 23.3% | viability, T/C (second compound 1 µM, first compound 0.949 µM): 27.7% | viability, T/C (second compound 1 µM, first compound 3 µM): 20.5% | viability, T/C (second compound 3.16 µM, first compound 0.00949 µM): 109% | viability, T/C (second compound 3.16 µM, first compound 0.03 µM): 51.2% | viability, T/C (second compound 3.16 µM, first compound 0.0949 µM): 31.7% | viability, T/C (second compound 3.16 µM, first compound 0.3 µM): 22.8% | viability, T/C (second compound 3.16 µM, first compound 0.949 µM): 25.1% | viability, T/C (second compound 3.16 µM, first compound 3 µM): 19.2% | viability, T/C (second compound 10 µM, first compound 0.00949 µM): 94.6% | viability, T/C (second compound 10 µM, first compound 0.03 µM): 54.8% | viability, T/C (second compound 10 µM, first compound 0.0949 µM): 33.1% | viability, T/C (second compound 10 µM, first compound 0.3 µM): 26.1% | viability, T/C (second compound 10 µM, first compound 0.949 µM): 21.1% | viability, T/C (second compound 10 µM, first compound 3 µM): 16.9%

CC(C)CC(NC(=O)C(Cc1ccccc1)NC(=O)c1cnccn1)B(O)O (centres undefined) + NC1CCC(NC2CC2c2ccccc2)CC1
IC50 [1]: < 0.316 nM | IC50 [2]: < 0.316 nM | IC50 [3]: < 0.316 nM | IC50 [4]: < 0.316 nM | IC50 [5]: < 0.316 nM | viability, T/C (second compound 0.1 µM, first compound 0.000316 µM): 9.27% | viability, T/C (second compound 0.1 µM, first compound 0.001 µM): 1.3% | viability, T/C (second compound 0.1 µM, first compound 0.00316 µM): 3.65% | viability, T/C (second compound 0.1 µM, first compound 0.01 µM): 0.1% | viability, T/C [6]: 0.06% | viability, T/C [7]: 0.11% | viability, T/C (second compound 0.316 µM, first compound 0.000316 µM): 8.56% | viability, T/C (second compound 0.316 µM, first compound 0.001 µM): 1.25% | viability, T/C (second compound 0.316 µM, first compound 0.00316 µM): 0.38% | viability, T/C (second compound 0.316 µM, first compound 0.01 µM): 0.1% | viability, T/C [12]: 0.09% | viability, T/C [13]: 0.14% | viability, T/C (second compound 1 µM, first compound 0.000316 µM): 10.1% | viability, T/C (second compound 1 µM, first compound 0.001 µM): 1.4% | viability, T/C (second compound 1 µM, first compound 0.00316 µM): 0.35% | viability, T/C (second compound 1 µM, first compound 0.01 µM): 0.2% | viability, T/C [18]: 0.03% | viability, T/C [19]: 2.22% | viability, T/C (second compound 3.16 µM, first compound 0.000316 µM): 9.75% | viability, T/C (second compound 3.16 µM, first compound 0.001 µM): 3.48% | viability, T/C (second compound 3.16 µM, first compound 0.00316 µM): 0.44% | viability, T/C (second compound 3.16 µM, first compound 0.01 µM): 0.14% | viability, T/C [24]: 0.04% | viability, T/C [25]: 1.61% | viability, T/C (second compound 10 µM, first compound 0.000316 µM): 5.79% | viability, T/C (second compound 10 µM, first compound 0.001 µM): 0.65% | viability, T/C (second compound 10 µM, first compound 0.00316 µM): 0.32% | viability, T/C (second compound 10 µM, first compound 0.01 µM): 0.23% | viability, T/C [30]: 0.09% | viability, T/C [31]: 0.37%
